The record followed here is ChEMBL document CHEMBL1146293, “From dihydroxypyrimidine carboxylic acids to carboxamide HIV-1 integrase inhibitors: SAR around the amide moiety” (Bioorg Med Chem Lett, 2007).

Structures are written as SMILES. Activity calls are given as the source filed them. The calls are words filed in the database; no cut-off is given here.

Human immunodeficiency virus type 1 integrase, sequence (Q7ZJM1 whole entry): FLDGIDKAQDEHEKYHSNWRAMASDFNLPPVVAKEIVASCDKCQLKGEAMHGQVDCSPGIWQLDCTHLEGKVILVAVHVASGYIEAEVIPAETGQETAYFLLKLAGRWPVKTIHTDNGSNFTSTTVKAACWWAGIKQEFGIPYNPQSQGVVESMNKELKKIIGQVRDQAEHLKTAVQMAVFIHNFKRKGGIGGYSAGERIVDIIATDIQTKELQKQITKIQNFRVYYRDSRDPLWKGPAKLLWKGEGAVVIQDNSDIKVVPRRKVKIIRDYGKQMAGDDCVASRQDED

The species entered for the first data set is Homo sapiens. Briefly: Inhibitory activity against human DNA polymerase gamma.
Settings: not given
Regarding `O=C(NCc1ccc(F)cc1)c1nc(-c2cccs2)nc(O)c1O`, the result was inactive.

Another data set has as its system Human immunodeficiency virus. The data set is described as follows: Inhibition of HIV reverse transcriptase.
Settings: not given
On to `O=C(NCc1ccc(F)cc1)c1nc(-c2cccs2)nc(O)c1O`, for which the result was inactive.

Another data set concerns Hepacivirus hominis. Briefly: Inhibition of HCV NS5b polymerase.
Settings: not given
Regarding `O=C(O)c1nc(-c2cccs2)nc(O)c1O`, the result was inactive.

The next data set addresses Human immunodeficiency virus type 1 integrase (Human immunodeficiency virus 1, UniProt Q7ZJM1). Briefly: Inhibition of HIV1 integrase strand transfer activity.
Settings: not given
Take `O=C(Nc1ccccc1)c1nc(-c2cccs2)nc(O)c1O`: half-maximal inhibition (IC50) required 1 µM.

`O=C(NCc1ccc(Cl)c(Cl)c1)c1nc(-c2cccs2)nc(O)c1O` had an IC50 of 0.01 µM.

The compound `O=C(Nc1csc2ccccc12)c1nc(-c2cccs2)nc(O)c1O` came in with a concentration for half-maximal inhibition (IC50) of 0.05 µM.

Compound `O=C(NCc1cccc(F)c1)c1nc(-c2cccs2)nc(O)c1O` gave a concentration for half-maximal inhibition (IC50) of 0.07 µM.

Turning to `O=C(NCc1ccccc1-c1ccccc1)c1nc(-c2cccs2)nc(O)c1O`, inhibition was half-maximal at 0.13 µM (IC50).

In turn, `O=C(N[C@@H]1CCc2ccccc21)c1nc(-c2cccs2)nc(O)c1O` registered a half-maximal inhibitory concentration (IC50) of 0.61 µM.

In the case of `COc1cccc(CNC(=O)c2nc(-c3cccs3)nc(O)c2O)c1`, it took 0.05 µM to reach half-maximal inhibition (IC50). Against the preceding compound, the IC50 is about 12-fold lower.

Compound `O=C(Nc1cccc2ccccc12)c1nc(-c2cccs2)nc(O)c1O` displayed an IC50 of 0.03 µM.

In turn, `COc1ccc(CNC(=O)c2nc(-c3cccs3)nc(O)c2O)cc1` yielded a half-inhibitory concentration (IC50) of 0.55 µM.

As for `O=C(NCC1CCCCC1)c1nc(-c2cccs2)nc(O)c1O`, the IC50 was determined as 50 µM.

On to `COc1ccccc1CNC(=O)c1nc(-c2cccs2)nc(O)c1O`, for which half-maximal inhibition (IC50) was put at 0.09 µM.

The compound `O=C(NCc1c[nH]c2ccccc12)c1nc(-c2cccs2)nc(O)c1O` showed a half-maximal inhibitory concentration (IC50) of 0.02 µM.

In turn, `Cc1cccc(CNC(=O)c2nc(-c3cccs3)nc(O)c2O)c1` yielded an IC50 of 0.04 µM. This IC50 lies about 2-fold higher than the previous one.

For `Cc1ccc(CNC(=O)c2nc(-c3cccs3)nc(O)c2O)cc1`, the IC50 was 0.07 µM.

In turn, `C[C@H](NC(=O)c1nc(-c2cccs2)nc(O)c1O)c1ccc2ccccc2c1` showed an IC50 of 0.04 µM.

Consider `Cc1ccccc1CNC(=O)c1nc(-c2cccs2)nc(O)c1O`, for which half-maximal inhibition (IC50) required 0.11 µM.

`C[C@@H](NC(=O)c1nc(-c2cccs2)nc(O)c1O)c1ccc2ccccc2c1` displayed a half-maximal inhibitory concentration (IC50) of 0.61 µM.

With `O=C(NCc1ccccc1F)c1nc(-c2cccs2)nc(O)c1O`, half-maximal inhibition (IC50) required 0.16 µM. Compared with the last compound, the IC50 is about 3.8-fold lower.

`CN(C(=O)c1nc(-c2cccs2)nc(O)c1O)c1cccc2ccccc12` registered a half-inhibitory concentration (IC50) of 0.21 µM.

As for `O=C(Nc1nccs1)c1nc(-c2cccs2)nc(O)c1O`, the half-inhibitory concentration (IC50) came to 0.2 µM.

Compound `O=C(NCc1cccc(-c2ccccc2)c1)c1nc(-c2cccs2)nc(O)c1O` returned an IC50 of 0.05 µM.

For `O=C(N[C@H]1CCc2ccccc21)c1nc(-c2cccs2)nc(O)c1O`, the IC50 turned out to be 0.02 µM.

`O=C(Nc1cccs1)c1nc(-c2cccs2)nc(O)c1O` displayed an IC50 of 0.1 µM.

`O=C(NCc1ccc(Cl)cc1)c1nc(-c2cccs2)nc(O)c1O` returned a 50% inhibitory concentration (IC50) of 0.02 µM.

Take `O=C(Nc1cncs1)c1nc(-c2cccs2)nc(O)c1O`: half-maximal inhibition (IC50) required 2.5 µM.

Consider `O=C(NCCc1ccccc1)c1nc(-c2cccs2)nc(O)c1O`, for which the IC50 was 0.02 µM.

Turning to `O=C(NCc1ccncc1)c1nc(-c2cccs2)nc(O)c1O`, the 50% inhibitory concentration (IC50) came to 16.6 µM.

As to `O=C(Nc1cc2ccccc2s1)c1nc(-c2cccs2)nc(O)c1O`, the IC50 was found to be 0.01 µM.

As to `O=C(NCc1ccc(-c2ccccc2)cc1)c1nc(-c2cccs2)nc(O)c1O`, the IC50 amounted to 50 µM. This IC50 lies about 5000-fold higher than the previous one.

System in another data set: not listed separately
Briefly: Oral bioavailability in rat. The data set is classed as ADME, organism-based. Conditions: in vivo.
As to `O=C(NCc1ccc(F)cc1)c1nc(-c2cccs2)nc(O)c1O`, the bioavailability was found to be 39%.

System in a further data set: not listed separately
Briefly: Plasma clearance in rat. The class given is ADME, organism-based.
Settings: not given
Compound `O=C(NCc1ccc(F)cc1)c1nc(-c2cccs2)nc(O)c1O` returned a clearance of 0.66 L/h/kg.

Another data set is filed under the species Homo sapiens. Briefly: Inhibitory activity against human DNA polymerase alpha.
Settings: not given
For `O=C(NCc1ccc(F)cc1)c1nc(-c2cccs2)nc(O)c1O`, the result was inactive.

For the next data set, the species on record is Homo sapiens. Briefly: Inhibitory activity against human DNA polymerase beta.
Settings: not given
Regarding `O=C(NCc1ccc(F)cc1)c1nc(-c2cccs2)nc(O)c1O`, the outcome was inactive.
